Reference: US10072304B2, “Nuclear localization of Src-family tyrosine kinases is required for growth factor-induced euchromatinization” (National University Corporation Chiba University, priority 2009, dated 2018)

What was measured:
[1] = test system: COS-1 cells; test: Quantitation of chromatin condensation levels (S.D. value of PI intensity per pixel) in COS-1 cells; format: cell-based, monkey
Protocol: COS-1, HeLa cells (Japanese Collection of Research Bioresources, Osaka), MCF-7 (provided by H. Saya), A431 (provided by M. N. Fukuda), HEK293 (provided by […]), HCT116 (provided by T. Tomonaga), and SYF ([37]; provided by M. Okada and S. Nada) cells were cultured in Iscove's modified DME containing 5% fetal bovine serum (FBS). Cells were transiently transfected with 0.5 μg of plasmid vector using Trans IT Transfection reagent (Mirus) or with 1 μg of plasmid vector using linear polyethylenimine (25 kDa) (Polyscience, Inc.). For growth factor stimulation, COS-1 cells were starved under low serum conditions (0.05% FBS) for 24 h and restimulated with serum (5% FBS). For stimulation of endogenous SFKs, cells were treated with 3 mM Na3VO4 for 3 h, and SFK-mediated tyrosine phosphorylation was verified by treatment with 10 μM PP2 (SFK inhibitor; Calbiochem) or 100 nM wortmannin (PI3K inhibitor; Alomone Labs) for 21 h before Na3VO4 treatment. Na3VO4 was dissolved at 500 mM in 500 mM unbuffered HEPES before use. For preparation of stable transfectant clones, SYF cells transfected with c-Src-wt or Lyn-wt were selected in 333 μg/mL Zeocin (Invitrogen), and COS-1 cells were transfected with the BOSH2BGFP-N1 vector, which encodes GFP-tagged histone H2B ([39,40]; provided by H. Saya), were selected in 3 μg/mL blasticidin. Confocal and Nomarski differential-interference-contrast images were obtained using a Fluoview FV500 confocal laser scanning microscope with a 40×1.00 NA oil and a 100×1.35 NA oil immersion objective (Olympus, Tokyo) and an LSM 510 confocal laser scanning microscope with a 63×1.40 NA oil immersion objective (Zeiss), as described. One planar (xy) section slice (0.6-μm thickness) is shown in all experiments. In brief, cells were fixed with 4% paraformaldehyde for 20 min, and permeabilized in phosphate-buffered saline (PBS) containing 0.1% saponin and 3% bovine serum albumin at room temperature. Cells were subsequently reacted with an appropriate primary antibody for 1 h, washed with PBS containing 0.1% saponin, stained with FITC- or TRITC-conjugated secondary antibody for 1 h. […] To ensure no bleed-through from the fluorescein signal into the red channel, fluorescein and rhodamine were independently excited at 488 nm and 543 nm, respectively. PI was excited at 488 or 543 nm. Emission signals were detected between 505 and 525 nm for fluorescein, at more than 560 nm for rhodamine and more than 610 nm for PI [44]. Composite figures were prepared using Photoshop 5.0 and Illustrator 9.0 software (Adobe). For nuclear staining with anti-pTyr, anti-ATF-2 […]/71, and anti-histone H3K4me3 antibodies, cells were in situ extracted with 0.5% Triton X-100 at 4° C. for 3 min before fixation with 4% paraformaldehyde. For HP1α staining, cells were fixed in 100% methanol at -20° C. for 10 min followed by permeabilization for 30 min in PBS containing 0.1% Triton X-100 at room temperature. Cells were reacted with anti-HP1α antibody for 1 h at room temperature, washed with PBS four times, and stained with secondary antibody for 1 h. Fluorescence intensity plots of anti-histone H3K4me3, anti-ATF-2 […]/71 and anti-HP1α antibody and PI staining (see FIGS. 18B, 19B, and 20B, respectively) were generated using Fluoview version 4.3 software (Olympus, Tokyo). For detection of the kinase activity of nuclear SFKs, purified nuclei suspended in kinase buffer (50 mM HEPES-NaOH, pH7.4, 5 mM MgCl2, 5 mM MnCl2 and 0.1 mM Na3VO4) were preincubated with or without 10 μM PP2 at 30° C. for 30 min, and subsequently incubated with 5 or 10 μM ATP at 30° C. for 30 min, followed by cytocentrifugation at 200×g for 5 min and fixation with 4% paraformaldehyde. DNA was stained with 20 μg/mL PI and 200 μg/mL RNase A for 30 min. Mean fluorescence intensity of tyrosine-phosphorylated proteins in the nucleus was measured using the ImageJ software (National Institutes of Health). Confocal images of PI-stained nuclei were obtained as described above. […]

[2] = test system: COS-1 cells; test: Cell cycle analysis: DNA content by flow cytometry in COS-1 cells; format: cell-based, monkey; details: H2O2 at 1, 10 and 20 mM for 1 h, FIGS. 11A-11D
Protocol: To obtain S- and G2-phase cells, COS-1 cells grown in Iscove's modified DME containing 5% FBS were blocked at S phase by exposure to 3 mM thymidine for 18 h. Cells were washed free of thymidine with PBS, and cultured for further 2 or 5 h. Cells were detached by trypsinization, fixed in 1.5% paraformaldehyde at 4° C. for 1 h, and then permeabilized with 70% ethanol at −30° C. for more than 1 h. Fixed cells were washed twice with PBS containing 3% FBS, and treated with 200 μg/ml RNase A and 50 μg/ml PI at 37° C. for 30 min to stain DNA. Cell cycle phase was analyzed by flow cytometry using a MoFlo cell sorter equipped with a 488-nm argon laser (Beckman Coulter). Cells transfected with Lyn-HA or NLS-Lyn-HA were cultured for 36 h, fixed and permeabilized as described above. Fixed cells were washed with PBS containing 3% FBS, stained with anti-HA antibody for 1 h, washed with PBS and stained with FITC-conjugated secondary antibody for 1 h. After DNA staining with PI as described above, cell cycle phase was analyzed in cells expressing Lyn-HA or NLS-Lyn-HA.

OO [H2O2, hydrogen peroxide]
level of DNA condensation (S.D. value) ([1]; COS-1, H2O2 at 1, 10 and 20 mM for 1 h, FIG. 12): corresponded to the degree of apoptosis | apoptotic SubG1 cells (histograms of DNA content) [2]: induction of apoptotic SubG1 cells in a dose-dependent manner

N#CC(=C(/N)Sc1ccccc1N)/C(C#N)=C(\N)Sc1ccccc1N [U0126]
basal levels of chromatin condensation ([1]; cells not specified, U0126 concentration not given, data not shown): slightly decreased
